Data from paper PMC3064100 (Diabetes, 2011).

Legend:
Type in all cases: in vivo, human
Conditions in all cases: i.v. infusion over 360 min, type 2 diabetic patients
[1] = tested on: patients with type 2 diabetes; experiment: Capillary plasma glucose during 360-min intravenous infusion
[2] = tested on: patients with type 2 diabetes; experiment: Insulin secretion rates by deconvolution of C-peptide
[3] = tested on: patients with type 2 diabetes; experiment: Plasma glucagon during 360-min intravenous infusion
[4] = tested on: patients with type 2 diabetes; experiment: Plasma free

## CC[C@H](C)[C@H](NC(=O)[C@H](CO)NC(=O)[C@H](Cc1ccc(O)cc1)NC(=O)[C@H](CC(=O)O)NC(=O)[C@H](CO)NC(=O)[C@@H](NC(=O)[C@H](Cc1ccccc1)NC(=O)[C@@H](NC(=O)CNC(=O)[C@H](CCC(=O)O)NC(=O)[C@H](C)NC(=O)[C@@H](N)Cc1ccc(O)cc1)[C@@H](C)O)[C@@H](C)CC)C(=O)N[C@@H](C)C(=O)N[C@@H](CCSC)C(=O)N[C@@H](CC(=O)O)C(=O)N[C@@H](CCCCN)C(=O)N[C@H](C(=O)N[C@@H](Cc1c[nH]cn1)C(=O)N[C@@H](CCC(N)=O)C(=O)N[C@@H](CCC(N)=O)C(=O)N[C@@H](CC(=O)O)C(=O)N[C@@H](Cc1ccccc1)C(=O)N[C@H](C(=O)N[C@@H](CC(N)=O)C(=O)N[C@@H](Cc1c[nH]c2ccccc12)C(=O)N[C@@H](CC(C)C)C(=O)N[C@@H](CC(C)C)C(=O)N[C@@H](C)C(=O)N[C@@H](CCC(N)=O)C(=O)N[C@@H](CCCCN)C(=O)NCC(=O)N[C@@H](CCCCN)C(=O)N[C@@H](CCCCN)C(=O)N[C@@H](CC(N)=O)C(=O)N[C@@H](CC(=O)O)C(=O)N[C@@H](Cc1c[nH]c2ccccc12)C(=O)N[C@@H](CCCCN)C(=O)N[C@@H](Cc1c[nH]cn1)C(=O)N[C@@H](CC(N)=O)C(=O)N[C@H](C(=O)N[C@H](C(=O)N[C@@H](CCC(N)=O)C(=O)O)[C@@H](C)O)[C@@H](C)CC)C(C)C)[C@@H](C)CC [GIP, glucose-dependent insulinotropic polypeptide]
[1]
  Effect on glucose concentrations: slight reduction
[2]
  Effect on insulin secretion (words; insulin, C-peptide, insulin secretory rates): hardly did so
[3]
  Effect on glucagon concentrations: tended to increase slightly
[4]
  Effect on plasma concentrations of free fatty acids: did not alter
